The source of these data is PubChem BioAssay (NCI).

The structures appear in SMILES notation.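 Grown in 96-well plates, cells were treated for 48 hours with each compound at five concentrations. Insufficient inhibition: endpoint recorded as highest concentration tested. TGI marks complete inhibition of growth.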

The first assay relates to RPMI-8226 leukemia. The experiment in a line: NCI anticancer screen, dose series, 48 h.
In the case of `CC(=O)O[C@]12CCCCCC1C1(O)C(O)CCC[C@H]12` (stereo not given in full), the TGI is > 100 µM.
On the same count and under the same terms, the result for `COCOc1ccc(Cn2c(=O)n(C)c(=O)c3c2ncn3C)cc1[N+](=O)[O-]` reads > 100 µM.
Same read-out and setting: under `BrC/C=C/C[P+](c1ccccc1)(c1ccccc1)c1ccccc1` stands > 100 µM.
Same read-out and setting: the result for `Cc1cc(=O)c2c([nH]1)NS(=O)(=O)NC2=O` reads > 100 µM.
For the compound `C=CCNC(=S)/N=C/c1c(O)c2ccccc2oc1=O`, the TGI is > 100 µM.
Same read-out and setting: under `CC(=O)N(C(C)=O)C1=C2c3ccccc3N(S(=O)(=O)c3ccccc3)C2n2c(=O)n(-c3ccccc3)c(=O)n2C1` (stereo not given) stands 40.2 µM.
Same read-out and setting: under `O=C(NC(Cc1ccc(I)cc1)C(=O)O)c1ccc(I)cc1` (stereo not given) stands > 100 µM; under `O=c1ccc2cc3ccc4cccc5ccc(c2o1)c3c45`, > 100 µM.
Still for that read-out and setting: under `Nc1c(-c2cccc3ccccc23)c2ccc([N+](=O)[O-])cc2c(=O)n1-c1nc2ccccc2s1` stands > 49.6 µM; under `CC1CC[C@@]2(OC1)OC1C[C@H]3[C@@H]4CC[C@H]5CC(OC6OC(CO)C(OC7OC(CO)C(O)C(O)C7OC7OC(CO)C(O)C(O)C7O)C(O)C6O)CCC5(C)[C@H]4CCC3(C)C1[C@@H]2C` (stereo not given in full), 6.96 µM.
Regarding `CC1(C)N=C(C(N)=O)c2ncn(CCCO)c2N1`, the TGI is > 100 µM.
On the same count and under the same terms, under `O=S(=O)(O)c1cc2ccc1/C=C\c1ccc(cc1S(=O)(=O)O)N=Nc1ccc(c(S(=O)(=O)O)c1)/C=C\c1ccc(cc1S(=O)(=O)O)N=N2` stands > 100 µM; under `CC(C)COP(=O)(OCC(C)C)C(NS(=O)(=O)c1ccccc1)(C(F)(F)F)C(F)(F)F`, 6.46 µM.
The same measure, in the same setting: under `CN(C)CCCN1C(=S)N(CCCN(C)C)c2c3cc(O)ccc3nc3c([N+](=O)[O-])ccc1c23` stands 15.5 µM.
On the same count and under the same terms, the result for `CC(O)C1CC1(CO)CNc1cc(Cl)nc(N)n1` (stereo not given) reads > 100 µM.
As to `CN(C)Cc1cc(C(=O)/C=C/c2ccc(O)cc2)cc(CN(C)C)c1O`, the TGI came out at 49.8 µM.

A further assay deals with DMS 273 small cell lung. Kind of assay: NCI anticancer screen, dose series, 48 h.
With `CC(=O)O[C@]12CCCCCC1C1(O)C(O)CCC[C@H]12` (stereo not given in full), the TGI was > 100 µM.
On the same count and under the same terms, under `COCOc1ccc(Cn2c(=O)n(C)c(=O)c3c2ncn3C)cc1[N+](=O)[O-]` stands > 100 µM.
Still for that read-out and setting: the result for `BrC/C=C/C[P+](c1ccccc1)(c1ccccc1)c1ccccc1` reads 14.2 µM.
As for `Cc1cc(=O)c2c([nH]1)NS(=O)(=O)NC2=O`, the TGI is > 100 µM.
On the same count and under the same terms, under `C=CCNC(=S)/N=C/c1c(O)c2ccccc2oc1=O` stands > 100 µM; under `CC(=O)N(C(C)=O)C1=C2c3ccccc3N(S(=O)(=O)c3ccccc3)C2n2c(=O)n(-c3ccccc3)c(=O)n2C1` (stereo not given), > 100 µM.
On the same count and under the same terms, under `O=C(NC(Cc1ccc(I)cc1)C(=O)O)c1ccc(I)cc1` (stereo not given) stands > 100 µM.
The same measure, in the same setting: the result for `O=S(=O)(O)c1cc2ccc1/C=C\c1ccc(cc1S(=O)(=O)O)N=Nc1ccc(c(S(=O)(=O)O)c1)/C=C\c1ccc(cc1S(=O)(=O)O)N=N2` reads > 100 µM.

Another assay deals with U251 CNS. The experiment in a line: NCI anticancer screen, dose series, 48 h.
On to `CC(=O)O[C@]12CCCCCC1C1(O)C(O)CCC[C@H]12` (stereo not given in full), for which the TGI is > 100 µM.
The same measure, in the same setting: under `COCOc1ccc(Cn2c(=O)n(C)c(=O)c3c2ncn3C)cc1[N+](=O)[O-]` stands > 100 µM; under `BrC/C=C/C[P+](c1ccccc1)(c1ccccc1)c1ccccc1`, 87 µM; under `C=CCNC(=S)/N=C/c1c(O)c2ccccc2oc1=O`, > 100 µM.
The same measure, in the same setting: the result for `CC(=O)N(C(C)=O)C1=C2c3ccccc3N(S(=O)(=O)c3ccccc3)C2n2c(=O)n(-c3ccccc3)c(=O)n2C1` (stereo not given) reads > 100 µM; that for `O=C(NC(Cc1ccc(I)cc1)C(=O)O)c1ccc(I)cc1` (stereo not given), > 100 µM; that for `O=c1ccc2cc3ccc4cccc5ccc(c2o1)c3c45`, 31.1 µM.
Still for that read-out and setting: the result for `Nc1c(-c2cccc3ccccc23)c2ccc([N+](=O)[O-])cc2c(=O)n1-c1nc2ccccc2s1` reads > 50.5 µM; that for `CC1CC[C@@]2(OC1)OC1C[C@H]3[C@@H]4CC[C@H]5CC(OC6OC(CO)C(OC7OC(CO)C(O)C(O)C7OC7OC(CO)C(O)C(O)C7O)C(O)C6O)CCC5(C)[C@H]4CCC3(C)C1[C@@H]2C` (stereo not given in full), 2.74 µM.
As to `CC1(C)N=C(C(N)=O)c2ncn(CCCO)c2N1`, the TGI is > 100 µM.
Regarding `O=S(=O)(O)c1cc2ccc1/C=C\c1ccc(cc1S(=O)(=O)O)N=Nc1ccc(c(S(=O)(=O)O)c1)/C=C\c1ccc(cc1S(=O)(=O)O)N=N2`, the TGI is > 100 µM.
The same measure, in the same setting: under `CC(C)COP(=O)(OCC(C)C)C(NS(=O)(=O)c1ccccc1)(C(F)(F)F)C(F)(F)F` stands 17.3 µM; under `CN(C)CCCN1C(=S)N(CCCN(C)C)c2c3cc(O)ccc3nc3c([N+](=O)[O-])ccc1c23`, 28 µM.
On the same count and under the same terms, the result for `CC(O)C1CC1(CO)CNc1cc(Cl)nc(N)n1` (stereo not given) reads > 100 µM; that for `CN(C)Cc1cc(C(=O)/C=C/c2ccc(O)cc2)cc(CN(C)C)c1O`, 32.2 µM.

Another assay concerns HL-60(TB) leukemia. Kind of assay: NCI anticancer screen, dose series, 48 h.
For the compound `CC(=O)O[C@]12CCCCCC1C1(O)C(O)CCC[C@H]12` (stereo not given in full), the TGI was > 100 µM.
The same measure, in the same setting: the result for `COCOc1ccc(Cn2c(=O)n(C)c(=O)c3c2ncn3C)cc1[N+](=O)[O-]` reads > 100 µM; that for `BrC/C=C/C[P+](c1ccccc1)(c1ccccc1)c1ccccc1`, 39.2 µM; that for `Cc1cc(=O)c2c([nH]1)NS(=O)(=O)NC2=O`, > 100 µM.
Still for that read-out and setting: under `C=CCNC(=S)/N=C/c1c(O)c2ccccc2oc1=O` stands > 100 µM.
The same measure, in the same setting: the result for `CC(=O)N(C(C)=O)C1=C2c3ccccc3N(S(=O)(=O)c3ccccc3)C2n2c(=O)n(-c3ccccc3)c(=O)n2C1` (stereo not given) reads 63.3 µM; that for `O=C(NC(Cc1ccc(I)cc1)C(=O)O)c1ccc(I)cc1` (stereo not given), > 100 µM; that for `O=c1ccc2cc3ccc4cccc5ccc(c2o1)c3c45`, > 100 µM.
`Nc1c(-c2cccc3ccccc23)c2ccc([N+](=O)[O-])cc2c(=O)n1-c1nc2ccccc2s1` displayed a TGI of 5.37 µM.
The same measure, in the same setting: under `CC1CC[C@@]2(OC1)OC1C[C@H]3[C@@H]4CC[C@H]5CC(OC6OC(CO)C(OC7OC(CO)C(O)C(O)C7OC7OC(CO)C(O)C(O)C7O)C(O)C6O)CCC5(C)[C@H]4CCC3(C)C1[C@@H]2C` (stereo not given in full) stands 11.6 µM; under `CC1(C)N=C(C(N)=O)c2ncn(CCCO)c2N1`, > 100 µM; under `O=S(=O)(O)c1cc2ccc1/C=C\c1ccc(cc1S(=O)(=O)O)N=Nc1ccc(c(S(=O)(=O)O)c1)/C=C\c1ccc(cc1S(=O)(=O)O)N=N2`, > 100 µM.
Same read-out and setting: the result for `CC(C)COP(=O)(OCC(C)C)C(NS(=O)(=O)c1ccccc1)(C(F)(F)F)C(F)(F)F` reads 4.13 µM; that for `CN(C)CCCN1C(=S)N(CCCN(C)C)c2c3cc(O)ccc3nc3c([N+](=O)[O-])ccc1c23`, 22.1 µM.
`CC(O)C1CC1(CO)CNc1cc(Cl)nc(N)n1` (stereo not given): the TGI is > 100 µM.
The compound `CN(C)Cc1cc(C(=O)/C=C/c2ccc(O)cc2)cc(CN(C)C)c1O` registered a TGI of 49.9 µM.

The subject of a further assay is LXFL 529 NSCLC. The experiment in a line: NCI anticancer screen, dose series, 48 h.
In the case of `CC(=O)O[C@]12CCCCCC1C1(O)C(O)CCC[C@H]12` (stereo not given in full), the TGI is > 100 µM.
The same measure, in the same setting: under `COCOc1ccc(Cn2c(=O)n(C)c(=O)c3c2ncn3C)cc1[N+](=O)[O-]` stands > 100 µM; under `BrC/C=C/C[P+](c1ccccc1)(c1ccccc1)c1ccccc1`, 45.1 µM; under `Cc1cc(=O)c2c([nH]1)NS(=O)(=O)NC2=O`, > 100 µM.
The same measure, in the same setting: the result for `C=CCNC(=S)/N=C/c1c(O)c2ccccc2oc1=O` reads > 100 µM.
As for `CC(=O)N(C(C)=O)C1=C2c3ccccc3N(S(=O)(=O)c3ccccc3)C2n2c(=O)n(-c3ccccc3)c(=O)n2C1` (stereo not given), the TGI was > 100 µM.
Still for that read-out and setting: under `O=c1ccc2cc3ccc4cccc5ccc(c2o1)c3c45` stands > 100 µM.

The subject of the next assay is DLD-1 colon. The experiment in a line: NCI anticancer screen, dose series, 48 h.
With `COCOc1ccc(Cn2c(=O)n(C)c(=O)c3c2ncn3C)cc1[N+](=O)[O-]`, the TGI was > 100 µM.
As to `Cc1cc(=O)c2c([nH]1)NS(=O)(=O)NC2=O`, the TGI is > 100 µM.
With `C=CCNC(=S)/N=C/c1c(O)c2ccccc2oc1=O`, the TGI was > 100 µM.
As to `CC(=O)N(C(C)=O)C1=C2c3ccccc3N(S(=O)(=O)c3ccccc3)C2n2c(=O)n(-c3ccccc3)c(=O)n2C1` (stereo not given), the TGI was > 100 µM.
The same measure, in the same setting: under `O=C(NC(Cc1ccc(I)cc1)C(=O)O)c1ccc(I)cc1` (stereo not given) stands > 100 µM; under `O=c1ccc2cc3ccc4cccc5ccc(c2o1)c3c45`, > 100 µM; under `O=S(=O)(O)c1cc2ccc1/C=C\c1ccc(cc1S(=O)(=O)O)N=Nc1ccc(c(S(=O)(=O)O)c1)/C=C\c1ccc(cc1S(=O)(=O)O)N=N2`, > 100 µM.

The next assay concerns MDA-N. The experiment in a line: NCI anticancer screen, dose series, 48 h.
`Nc1c(-c2cccc3ccccc23)c2ccc([N+](=O)[O-])cc2c(=O)n1-c1nc2ccccc2s1`: the TGI was > 31.6 µM.
